According to ChEMBL document CHEMBL5113380, “Functionalized quinoxalinones as privileged structures with broad-ranging pharmacological activities” (Eur J Med Chem, 2022):
Values after ≈ are worked out from the molar mass of the structure shown.

What was measured:
A549 = experiment: Antiproliferative activity against human A549 cells; format: functional, cell-based
HeLa = experiment: Antiproliferative activity against human HeLa cells; format: functional, cell-based
LS174T = experiment: Antiproliferative activity against human LS174T cells; format: functional, cell-based
MRC5 = experiment: Antiproliferative activity against human MRC5 cells; format: functional, cell-based
[1] = Antioxidant activity assessed as DPPH radical scavenging activity; format: functional
[2] = Antioxidant activity assessed as H2O2 radical scavenging activity; format: functional
[3] = Antioxidant activity assessed as NO radical scavenging activity; format: functional
Pyricularia grisea [4] = experiment: Antifungal activity against Magnaporthe grisea GD08-T19 at 50 ug/ml; format: functional; conditions: dose 50 µg/ml
Pyricularia grisea [5] = experiment: Antifungal activity against Magnaporthe grisea GD08-T19 assessed as diameter zone of inhibition; format: functional
Papillary muscle = experiment: Positive inotropic activity in ferret papillary muscle assessed as contractile force measured as CFC20; format: functional, Mustela putorius furo
Mesenteric vein = experiment: Vasorelaxant activity in dog mesenteric veins; format: functional, tissue-based; conditions: Canis lupus familiaris
Coronary artery = experiment: Vasorelaxant activity in dog coronary arteries; format: functional, tissue-based; conditions: Canis lupus familiaris
[6] = molecular target: 3',5'-cyclic phosphodiesterase; experiment: Inhibition of cAMP-specific 3',5'-cyclic phosphodiesterase (unknown origin); format: protein assay, Homo sapiens
[7] = Inhibition of cGMP-dependent 3',5'-cyclic phosphodiesterase (unknown origin); design: species or system Homo sapiens
Escherichia coli [8] = experiment: Antibacterial activity against Escherichia coli; format: functional
Staphylococcus aureus [9] = experiment: Antibacterial activity against Staphylococcus aureus; format: functional
Candida albicans = experiment: Antifungal activity against Candida albicans; format: functional
Enterococcus faecalis = experiment: Antibacterial activity against Enterococcus faecalis; format: functional
Klebsiella pneumoniae = experiment: Antibacterial activity against Klebsiella pneumoniae; format: functional
Aspergillus fumigatus = experiment: Antifungal activity against Aspergillus fumigatus; format: functional
[10] = tested on: Mycobacterium tuberculosis; experiment: Antimycobacterial activity against Mycobacterium tuberculosis H37Rv; format: functional
[11] = molecular target: T1, Glutamate receptor ionotropic AMPA (Homo sapiens, UniProt P42261+P42262+P42263+P48058); experiment: Displacement of [3H]AMPA from AMPA receptor (unknown origin); format: protein-complex assay
[12] = Displacement of [3H]glycine from AMPA receptor (unknown origin); format: protein-complex assay, Homo sapiens
[13] = molecular target: T1, Glutamate receptor ionotropic AMPA; experiment: Displacement of [3H]kainic acid from AMPA receptor (unknown origin); format: protein-complex assay
[14] = molecular target: Glutamate [NMDA] receptor; experiment: Displacement of [3H]MK-801 from NMDA receptor (unknown origin); format: protein-complex assay, Homo sapiens
Staphylococcus aureus [15] = experiment: Antibacterial activity against Staphylococcus aureus assessed as diameter zone of inhibition; format: functional
Bacillus subtilis = experiment: Antibacterial activity against Bacillus subtilis assessed as diameter zone of inhibition; format: functional
Escherichia coli [16] = experiment: Antibacterial activity against Escherichia coli assessed as diameter zone of inhibition; format: functional

COc1ccc(C(=O)Nc2cccc(C(=O)/C=C3/Nc4ccccc4NC3=O)c2)cc1
IC50 (A549): 40.4 µM | IC50 (HeLa): 10.5 µM | IC50 (LS174T): 16.8 µM | IC50 (MRC5): 182 µM

Cc1nc2ccccc2n(CC(=O)N/N=C/c2ccc(OCCn3cc(CN4CCOCC4)nn3)cc2)c1=O
IC50 [1]: 25 µg/mL (≈ 47.1 µM) | IC50 [2]: 49.01 µg/mL (≈ 92.4 µM) | IC50 [3]: 47.16 µg/mL (≈ 88.9 µM)

Cc1nc2ccccc2n(CC(=O)N/N=C/c2ccc(OCCn3cc(CN4CCCC4)nn3)cc2)c1=O
IC50 [1]: 27.17 µg/mL (≈ 52.8 µM) | IC50 [2]: 56.81 µg/mL (≈ 110 µM) | IC50 [3]: 53.19 µg/mL (≈ 103 µM)

Cn1c(=O)c(C(CCCOc2cc(=O)oc3ccccc23)CC(F)(F)F)nc2ccccc21 (stereo not drawn)
Activity (Pyricularia grisea [4]): 23% | diameter of the inhibition zone (DIZ) (Pyricularia grisea [5]): 48 mm

Oc1nc2cccnc2n2ccnc12
Activity (Papillary muscle): 2.2 µM | EC50 (Mesenteric vein): 10 µM | EC50 (Coronary artery): 11 µM | IC50 [6]: 44 µM | IC50 [7]: 27 µM

CCc1nccn1-c1ncnc2c1nc(O)c1cnc(CC)n12
Activity (Papillary muscle): >100 µM | EC50 (Mesenteric vein): 23 µM | EC50 (Coronary artery): 59 µM | IC50 [6]: > 100 µM | IC50 [7]: 14 µM

C/C(=N\NC(=O)Cn1c(=O)c(C)nc2ccccc21)c1ccc(N)cc1
MIC (Escherichia coli [8]): 125 µg/mL (≈ 358 µM) | MIC (Staphylococcus aureus [9]): 125 µg/mL (≈ 358 µM) | MIC (Candida albicans): 16.1 µg/mL (≈ 46 µM) | MIC (Enterococcus faecalis): 16.1 µg/mL (≈ 46 µM) | MIC (Klebsiella pneumoniae): 125 µg/mL (≈ 358 µM) | MIC (Aspergillus fumigatus): 1 µg/mL (≈ 2.86 µM) | MIC [10]: 25 µg/mL (≈ 71.6 µM)

Cc1nc2ccccc2n(CC(=O)N/N=C/c2ccc(OCCn3cc(CN4CCCCC4)nn3)cc2)c1=O
IC50 [1]: 28.24 µg/mL (≈ 53.4 µM) | IC50 [2]: 54.34 µg/mL (≈ 103 µM) | IC50 [3]: 52.08 µg/mL (≈ 98.5 µM)

O=C(/C=C/c1ccccc1)/C=C1/Nc2ccccc2NC1=O
IC50 (A549): 22.6 µM | IC50 (HeLa): 16.6 µM | IC50 (LS174T): 19.1 µM | IC50 (MRC5): 174 µM

O=C(O)c1cc2c3cc(Cl)c(Cl)cc3[nH]c(=O)n2n1
Ki [11]: 2.4 µM | Ki [12]: 0.16 µM | IC50 [13]: 41 µM | IC50 [14]: 0.89 µM

C=C(C)CCC(=O)/C=C1/Nc2ccccc2NC1=O
IC50 (A549): 86.2 µM | IC50 (HeLa): 25.1 µM | IC50 (LS174T): 33.5 µM | IC50 (MRC5): 174 µM

Cn1c(=O)c(C(CCCOC(=O)c2cccs2)CC(F)(F)F)nc2ccccc21 (stereo not drawn)
Activity (Pyricularia grisea [4]): 23% | diameter of the inhibition zone (DIZ) (Pyricularia grisea [5]): 47 mm

CCc1ncc2c(O)nc3cccnc3n12
Activity (Papillary muscle): 0.1 µM | EC50 (Mesenteric vein): 0.5 µM | EC50 (Coronary artery): 0.3 µM | IC50 [6]: 1 µM | IC50 [7]: 7 µM

CCc1nc(C)c2c(O)nc3ccccc3n12
Activity (Papillary muscle): 0.2 µM | EC50 (Mesenteric vein): 0.8 µM | EC50 (Coronary artery): 1.7 µM | IC50 [6]: 2 µM | IC50 [7]: 0.4 µM

COc1ccc(/C(C)=N/NC(=O)Cn2c(=O)c(C)nc3ccccc32)cc1
MIC (Escherichia coli [8]): 125 µg/mL (≈ 343 µM) | MIC (Staphylococcus aureus [9]): 62.5 µg/mL (≈ 172 µM) | MIC (Candida albicans): 250 µg/mL (≈ 686 µM) | MIC (Enterococcus faecalis): 131 µg/mL (≈ 360 µM) | MIC (Klebsiella pneumoniae): 125 µg/mL (≈ 343 µM) | MIC (Aspergillus fumigatus): 8.06 µg/mL (≈ 22.1 µM) | MIC [10]: 25 µg/mL (≈ 68.6 µM)

Cn1c(=O)c(C(CCCNC(=O)c2ccc(OC(F)(F)F)cc2)CC(F)(F)F)nc2ccccc21 (stereo not drawn)
Activity (Pyricularia grisea [4]): 49% | diameter of the inhibition zone (DIZ) (Pyricularia grisea [5]): 32 mm

C/C(=N\NC(=O)Cn1c(=O)c(C)nc2ccccc21)c1cccnc1
MIC (Escherichia coli [8]): 125 µg/mL (≈ 373 µM) | MIC (Staphylococcus aureus [9]): 250 µg/mL (≈ 745 µM) | MIC (Candida albicans): 16.1 µg/mL (≈ 47.9 µM) | MIC (Enterococcus faecalis): 16.1 µg/mL (≈ 47.9 µM) | MIC (Klebsiella pneumoniae): 125 µg/mL (≈ 373 µM) | MIC (Aspergillus fumigatus): 8.06 µg/mL (≈ 24 µM) | MIC [10]: 25 µg/mL (≈ 74.5 µM)

O=c1[nH]c2ccccc2nc1Cc1nnc(S)o1
diameter of the inhibition zone (DIZ) (Staphylococcus aureus [15]): 11 mm | diameter of the inhibition zone (DIZ) (Bacillus subtilis): 10 mm

Cc1ccc(S(=O)(=O)NCCCC(CC(F)(F)F)c2nc3ccccc3n(C)c2=O)cc1 (stereo not drawn)
Activity (Pyricularia grisea [4]): 23% | diameter of the inhibition zone (DIZ) (Pyricularia grisea [5]): 47 mm

O=C(O)c1nc2c(=O)[nH]c3cc(Cl)c(Cl)cc3n2n1
Ki [11]: 1.3 µM | Ki [12]: 0.074 µM | EC50 [14]: 0.3 µM

C/C(=N\NC(=O)Cn1c(=O)c(C)nc2ccccc21)c1ccc(O)cc1
MIC (Escherichia coli [8]): 125 µg/mL (≈ 357 µM) | MIC (Staphylococcus aureus [9]): 250 µg/mL (≈ 714 µM) | MIC (Candida albicans): 4 µg/mL (≈ 11.4 µM) | MIC (Enterococcus faecalis): 16.1 µg/mL (≈ 45.8 µM) | MIC (Klebsiella pneumoniae): 125 µg/mL (≈ 357 µM) | MIC (Aspergillus fumigatus): 4 µg/mL (≈ 11.4 µM) | MIC [10]: 25 µg/mL (≈ 71.4 µM)

O=C(CC1=NC2CCCCC2NC1=O)NNC(=S)Nc1ccccc1 (stereo not drawn)
diameter of the inhibition zone (DIZ) (Staphylococcus aureus [15]): 16 mm | diameter of the inhibition zone (DIZ) (Bacillus subtilis): 18 mm | diameter of the inhibition zone (DIZ) (Escherichia coli [16]): 12 mm

COc1ccc(C(=O)/C=C2/Nc3ccccc3NC2=O)cc1
IC50 (A549): 66.9 µM | IC50 (HeLa): 15.2 µM | IC50 (LS174T): 24.3 µM | IC50 (MRC5): 190 µM
